# Measurements reported in patent US12030896B2, “PIKfyve inhibitors” (Mayo Foundation for Medical Education and Research, priority 2018, dated 2024).
# Assays:
# [1] = test system: 468 kinases; test: Kinase selectivity panel (Treespot dendrogram); assay type: binding
# Protocol: In contrast, 50 nM Apilimod inhibited two kinases to 1% or 10%, and 3 kinases to 35% of control. To examine non-specific binding at higher concentrations, Example 1, Example 3, and Apilimod were tested at 5000 nM. […] PIKfyve is represented at the bottom left of each dendrogram.
# [2] = test system: Murine lymphoma cells (E2409, EC+F); test: Killing of murine lymphoma cells, 48 hour assay; assay type: cell-based
# Protocol: All experiments in FIG. 6 were performed using RPMI media (Life Technologies) was used as the base formulation and culture medium also contained 1 mM Sodium Pyruvate, 100 mM HEPES, 2 mM additional L-Glutamine, 55 uM 2-mercaptoethanol, and 1×MEM NEAA Solution (all from Life Technologies). Trypsin was not necessary for these non-adherent cells. Presto Blue reagent (Life Technologies) was used as an endpoint assay using the same procedure described in previously for Alamar Blue, with a 30 minute incubation time.
# [3] = test system: U251 glioblastoma cell; test: Cell killing in combination with vemurafenib; assay type: cell-based, human; conditions: low concentrations of Example 1 (e.g., 0.5 μM) + 10 μM vemurafenib, 72 hour
# Protocol: A 25 mM stock of vemurafenib (obtained from Selleckchem) in DMSO was diluted to 2× the indicated concentration into the cell suspension immediately prior to plating the cell suspension onto the pre-diluted Example 1 or Example 3, to result in a final 1× concentration of both compounds.
# See FIG. 13 for showing of U251 glioblastoma cell killing by Example 1 alone or in the presence of 10 μM vemurafenib over a 72 hour time course.
structure (smiles),measurement,setting,value
"Cc1ccc(Nc2nc(N/N=C/c3c[nH]c4ccccc34)nc(N3CCOCC3)n2)cc1 [Example 1, (E)-4-(2-((1H-indol-3-yl)methylene)hydrazinyl)-6-morpholino-N-(p-tolyl)-1,3,5-triazin-2-amine]",number of kinases blocked to 1% of control,"[1]; 50 nM, 468 kinases",1
same,number of kinases blocked to 10% of control,"[1]; 50 nM, 468 kinases",did not block other kinases
same,number of kinases blocked to 35% of control,"[1]; 50 nM, 468 kinases",did not block other kinases
same,number of kinases blocked to 1% activity level,[1]; 5000 nM,2
same,number of kinases blocked to 10% activity level,[1]; 5000 nM,4
same,number of kinases blocked to 35% activity level,[1]; 5000 nM,11
same,selectivity for PIKfyve,"[1]; comparison of Example 1, Example 3 and apilimod",more selective
same,cell killing,[2],killed by relatively low concentrations
same,cell killing on addition of vemurafenib,[3],significantly improves cell killing
